Here are results for ten molecules from ChEMBL document CHEMBL5465560, “Selectivity Literature for EUbOPEN Chemogenomic Library” (2024).

Test [1] has as its target Tyrosine-protein kinase Fer (Homo sapiens) (UniProt P16591). Put plainly: Selectivity interaction (Kinase panel (KiNativ target engagement assay in Jurkat cells)) EUB0001635a FER. In kind it is cell-based. The settings on record: Selectivity number of off-targets 0.0, Selectivity number of targets 233.0, Source Knowledge https://www.sciencedirect.com/science/article/pii/S2451945619300674?via%3Dihub, at 1 µM.

Test [2] deals with T1, Serine/threonine-protein kinase D1 (Homo sapiens) (UniProt Q15139).
T1 sequence (whole entry): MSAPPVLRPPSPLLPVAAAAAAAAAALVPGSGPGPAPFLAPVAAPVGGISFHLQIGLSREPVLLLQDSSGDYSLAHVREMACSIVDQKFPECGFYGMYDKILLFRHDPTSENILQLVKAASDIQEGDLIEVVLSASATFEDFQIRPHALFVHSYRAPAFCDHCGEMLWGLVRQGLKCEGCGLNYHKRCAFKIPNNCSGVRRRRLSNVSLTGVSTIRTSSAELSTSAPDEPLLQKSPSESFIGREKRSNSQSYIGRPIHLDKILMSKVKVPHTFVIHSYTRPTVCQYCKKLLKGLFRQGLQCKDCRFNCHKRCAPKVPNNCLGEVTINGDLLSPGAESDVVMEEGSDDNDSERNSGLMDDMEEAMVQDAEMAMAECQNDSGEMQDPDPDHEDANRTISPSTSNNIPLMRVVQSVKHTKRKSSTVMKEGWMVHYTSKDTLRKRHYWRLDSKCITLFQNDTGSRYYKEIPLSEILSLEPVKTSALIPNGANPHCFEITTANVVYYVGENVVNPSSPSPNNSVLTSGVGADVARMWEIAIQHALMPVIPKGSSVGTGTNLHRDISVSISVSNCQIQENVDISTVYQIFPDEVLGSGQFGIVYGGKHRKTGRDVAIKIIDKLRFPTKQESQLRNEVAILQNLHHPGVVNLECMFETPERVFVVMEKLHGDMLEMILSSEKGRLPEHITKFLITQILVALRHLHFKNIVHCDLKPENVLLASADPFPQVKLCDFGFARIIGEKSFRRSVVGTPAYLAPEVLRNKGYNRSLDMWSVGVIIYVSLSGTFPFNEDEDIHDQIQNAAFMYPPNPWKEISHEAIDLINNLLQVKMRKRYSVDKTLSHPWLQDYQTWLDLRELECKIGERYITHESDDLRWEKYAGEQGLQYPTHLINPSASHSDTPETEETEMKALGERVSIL
Put plainly: Selectivity interaction (KinomeScan (DiscoverX)) EUB0000607a PRKD1. The settings on record: at 10 µM.

Test [3] has as its target Fibroblast growth factor receptor 2 (Homo sapiens) (UniProt P21802). Briefly: Selectivity interaction (KinomeScan (DiscoverX)) EUB0000607a FGFR2. The settings on record: at 10 µM.
Test [4] deals with MAP kinase-activated protein kinase 2 (Homo sapiens, UniProt P49137). The settings on record: at 10 µM.
The target in test [5] is Calcium/calmodulin-dependent protein kinase kinase 1 (Homo sapiens) (UniProt Q8N5S9). Briefly: Selectivity interaction (KinomeScan (DiscoverX)) EUB0000666a CAMKK1. The settings on record: at 10 µM.
Chain of Calcium/calmodulin-dependent protein kinase kinase 1 (Homo sapiens) (Q8N5S9 whole entry, looked up): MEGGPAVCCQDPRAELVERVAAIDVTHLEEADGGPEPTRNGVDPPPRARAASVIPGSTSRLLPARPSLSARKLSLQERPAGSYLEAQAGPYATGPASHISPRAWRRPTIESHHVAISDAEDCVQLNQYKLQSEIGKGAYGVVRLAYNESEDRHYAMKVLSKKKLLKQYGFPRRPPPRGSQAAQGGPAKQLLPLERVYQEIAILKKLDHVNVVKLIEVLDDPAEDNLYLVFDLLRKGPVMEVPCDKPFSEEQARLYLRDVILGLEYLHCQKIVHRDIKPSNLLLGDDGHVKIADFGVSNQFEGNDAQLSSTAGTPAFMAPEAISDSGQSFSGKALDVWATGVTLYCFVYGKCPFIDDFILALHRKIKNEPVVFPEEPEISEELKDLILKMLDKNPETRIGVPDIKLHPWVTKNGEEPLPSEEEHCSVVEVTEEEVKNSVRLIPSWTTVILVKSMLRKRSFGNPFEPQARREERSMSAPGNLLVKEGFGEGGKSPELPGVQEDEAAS
Test [6] has as its target SRSF protein kinase 2 (Homo sapiens) (UniProt P78362). Briefly: Selectivity interaction (KinomeScan (DiscoverX)) EUB0000229b SRPK2. The settings on record: at 10 µM.
The target of test [7] is T2, Mitogen-activated protein kinase kinase kinase 5 (Homo sapiens) (UniProt Q99683).
T2 sequence (whole entry): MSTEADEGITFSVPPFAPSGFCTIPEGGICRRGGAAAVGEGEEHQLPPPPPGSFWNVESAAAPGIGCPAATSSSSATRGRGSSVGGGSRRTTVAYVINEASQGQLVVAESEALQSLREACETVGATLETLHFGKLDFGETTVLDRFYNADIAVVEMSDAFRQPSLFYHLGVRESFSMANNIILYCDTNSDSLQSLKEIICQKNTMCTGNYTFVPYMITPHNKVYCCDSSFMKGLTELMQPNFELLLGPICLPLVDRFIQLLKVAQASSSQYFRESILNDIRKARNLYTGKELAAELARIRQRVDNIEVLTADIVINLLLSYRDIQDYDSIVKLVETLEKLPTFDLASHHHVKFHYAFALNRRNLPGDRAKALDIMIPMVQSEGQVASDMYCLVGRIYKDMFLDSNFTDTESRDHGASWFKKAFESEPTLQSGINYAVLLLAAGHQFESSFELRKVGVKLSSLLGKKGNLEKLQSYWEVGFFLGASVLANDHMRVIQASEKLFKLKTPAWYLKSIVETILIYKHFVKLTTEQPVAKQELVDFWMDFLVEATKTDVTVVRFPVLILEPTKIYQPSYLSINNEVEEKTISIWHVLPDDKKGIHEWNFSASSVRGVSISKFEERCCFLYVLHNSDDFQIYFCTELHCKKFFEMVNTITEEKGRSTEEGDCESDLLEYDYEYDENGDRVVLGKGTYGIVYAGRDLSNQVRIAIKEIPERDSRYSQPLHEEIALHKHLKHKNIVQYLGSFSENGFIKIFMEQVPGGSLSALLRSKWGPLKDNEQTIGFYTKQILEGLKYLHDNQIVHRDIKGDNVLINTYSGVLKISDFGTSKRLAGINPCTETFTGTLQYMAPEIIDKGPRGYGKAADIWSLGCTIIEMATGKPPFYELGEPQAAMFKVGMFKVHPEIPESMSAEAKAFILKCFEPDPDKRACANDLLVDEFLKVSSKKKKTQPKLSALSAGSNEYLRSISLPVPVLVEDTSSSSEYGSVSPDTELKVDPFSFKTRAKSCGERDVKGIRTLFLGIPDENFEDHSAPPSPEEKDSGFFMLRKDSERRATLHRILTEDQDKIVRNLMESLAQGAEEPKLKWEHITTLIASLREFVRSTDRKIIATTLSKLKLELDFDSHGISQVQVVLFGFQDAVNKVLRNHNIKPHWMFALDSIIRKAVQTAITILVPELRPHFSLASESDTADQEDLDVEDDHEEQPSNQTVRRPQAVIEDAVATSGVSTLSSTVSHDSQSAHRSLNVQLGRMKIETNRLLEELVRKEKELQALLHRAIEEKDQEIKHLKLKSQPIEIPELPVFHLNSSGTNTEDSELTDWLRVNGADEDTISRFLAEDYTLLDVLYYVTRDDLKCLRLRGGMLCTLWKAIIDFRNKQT
Briefly: Selectivity interaction (KinomeScan (DiscoverX)) EUB0001619a MAP3K5. The settings on record: at 1 µM.

Test [8] deals with Glycogen synthase kinase-3 beta (Homo sapiens, UniProt P49841).
The target in test [9] is Interferon-induced, double-stranded RNA-activated protein kinase (Homo sapiens) (UniProt P19525). Briefly: Selectivity interaction (ProQinase) EUB0000171b EIF2AK2.
Chain of Interferon-induced, double-stranded RNA-activated protein kinase (Homo sapiens) (P19525 whole entry): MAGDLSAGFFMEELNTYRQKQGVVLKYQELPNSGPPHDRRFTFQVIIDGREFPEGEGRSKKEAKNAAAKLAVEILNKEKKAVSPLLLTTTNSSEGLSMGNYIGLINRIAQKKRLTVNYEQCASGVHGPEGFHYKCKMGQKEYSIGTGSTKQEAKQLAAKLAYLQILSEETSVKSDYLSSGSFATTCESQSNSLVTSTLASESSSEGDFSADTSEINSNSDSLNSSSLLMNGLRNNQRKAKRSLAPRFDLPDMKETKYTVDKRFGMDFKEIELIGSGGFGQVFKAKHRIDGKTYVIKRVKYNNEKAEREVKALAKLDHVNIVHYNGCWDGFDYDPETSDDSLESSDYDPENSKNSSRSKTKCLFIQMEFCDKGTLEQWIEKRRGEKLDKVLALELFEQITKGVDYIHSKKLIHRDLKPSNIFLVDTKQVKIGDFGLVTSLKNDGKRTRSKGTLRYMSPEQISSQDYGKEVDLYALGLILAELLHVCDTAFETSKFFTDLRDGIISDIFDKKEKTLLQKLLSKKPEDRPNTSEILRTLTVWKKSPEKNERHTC
Test [10] concerns the target Serine/threonine-protein kinase OSR1 (Homo sapiens) (UniProt O95747). Put plainly: Selectivity interaction (Kinase panel (DSF assay)) EUB0001559a OXSR1. On the technique in general: Differential scanning fluorimetry follows unfolding on heating by fluorescence.
Test [11] addresses BMP-2-inducible protein kinase (Homo sapiens) (UniProt Q9NSY1). Briefly: Selectivity interaction (KinomeScan (DiscoverX)) EUB0000595a BMP2K. The settings on record: at 10 µM.

Chain of BMP-2-inducible protein kinase (Homo sapiens) (Q9NSY1 whole entry, looked up): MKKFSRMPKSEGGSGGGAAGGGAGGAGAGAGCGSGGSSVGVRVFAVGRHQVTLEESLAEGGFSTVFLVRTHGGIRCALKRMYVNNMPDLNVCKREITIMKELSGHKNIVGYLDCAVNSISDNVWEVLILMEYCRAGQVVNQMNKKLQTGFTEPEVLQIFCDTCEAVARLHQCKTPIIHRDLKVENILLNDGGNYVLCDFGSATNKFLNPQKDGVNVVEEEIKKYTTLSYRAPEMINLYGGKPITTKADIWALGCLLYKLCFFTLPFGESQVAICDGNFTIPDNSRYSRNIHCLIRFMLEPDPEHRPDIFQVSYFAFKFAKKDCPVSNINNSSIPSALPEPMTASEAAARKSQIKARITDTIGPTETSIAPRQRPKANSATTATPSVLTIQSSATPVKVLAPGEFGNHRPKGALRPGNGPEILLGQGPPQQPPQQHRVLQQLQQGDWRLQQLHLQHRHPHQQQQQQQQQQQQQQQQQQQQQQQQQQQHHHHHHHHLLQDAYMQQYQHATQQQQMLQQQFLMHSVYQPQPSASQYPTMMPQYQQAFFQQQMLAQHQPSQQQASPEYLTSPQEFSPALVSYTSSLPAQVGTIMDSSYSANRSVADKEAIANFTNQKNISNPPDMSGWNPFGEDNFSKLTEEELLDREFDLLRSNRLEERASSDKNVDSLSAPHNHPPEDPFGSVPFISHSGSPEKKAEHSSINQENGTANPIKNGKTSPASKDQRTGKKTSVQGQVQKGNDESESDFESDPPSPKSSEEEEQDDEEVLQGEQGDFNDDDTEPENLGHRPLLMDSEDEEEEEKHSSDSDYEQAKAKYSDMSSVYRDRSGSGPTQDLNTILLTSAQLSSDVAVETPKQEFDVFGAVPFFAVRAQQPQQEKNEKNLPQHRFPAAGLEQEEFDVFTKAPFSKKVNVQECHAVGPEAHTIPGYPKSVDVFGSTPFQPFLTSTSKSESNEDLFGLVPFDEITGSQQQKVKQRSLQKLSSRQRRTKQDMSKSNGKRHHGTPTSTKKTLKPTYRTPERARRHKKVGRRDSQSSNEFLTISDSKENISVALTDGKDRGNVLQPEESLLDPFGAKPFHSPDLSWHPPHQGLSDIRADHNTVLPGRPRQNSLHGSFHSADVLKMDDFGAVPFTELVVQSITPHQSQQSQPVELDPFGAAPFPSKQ
Chain of Serine/threonine-protein kinase OSR1 (Homo sapiens) (O95747 2-527 limits assumed): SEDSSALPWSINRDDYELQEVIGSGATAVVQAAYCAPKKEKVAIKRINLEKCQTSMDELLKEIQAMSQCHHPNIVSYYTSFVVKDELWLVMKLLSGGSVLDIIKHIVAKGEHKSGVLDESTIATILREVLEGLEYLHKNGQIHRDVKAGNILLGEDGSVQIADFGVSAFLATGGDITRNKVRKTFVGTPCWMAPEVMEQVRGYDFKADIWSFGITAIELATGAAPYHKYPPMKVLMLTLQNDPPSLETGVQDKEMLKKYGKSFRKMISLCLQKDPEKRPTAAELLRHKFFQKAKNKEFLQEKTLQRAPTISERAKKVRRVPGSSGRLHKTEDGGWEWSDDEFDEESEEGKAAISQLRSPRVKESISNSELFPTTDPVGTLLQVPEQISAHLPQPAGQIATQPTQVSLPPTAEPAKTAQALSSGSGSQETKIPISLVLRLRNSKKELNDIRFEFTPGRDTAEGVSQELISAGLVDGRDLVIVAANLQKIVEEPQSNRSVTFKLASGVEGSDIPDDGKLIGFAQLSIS
Chain of Fibroblast growth factor receptor 2 (Homo sapiens) (P21802 22-821 limits assumed): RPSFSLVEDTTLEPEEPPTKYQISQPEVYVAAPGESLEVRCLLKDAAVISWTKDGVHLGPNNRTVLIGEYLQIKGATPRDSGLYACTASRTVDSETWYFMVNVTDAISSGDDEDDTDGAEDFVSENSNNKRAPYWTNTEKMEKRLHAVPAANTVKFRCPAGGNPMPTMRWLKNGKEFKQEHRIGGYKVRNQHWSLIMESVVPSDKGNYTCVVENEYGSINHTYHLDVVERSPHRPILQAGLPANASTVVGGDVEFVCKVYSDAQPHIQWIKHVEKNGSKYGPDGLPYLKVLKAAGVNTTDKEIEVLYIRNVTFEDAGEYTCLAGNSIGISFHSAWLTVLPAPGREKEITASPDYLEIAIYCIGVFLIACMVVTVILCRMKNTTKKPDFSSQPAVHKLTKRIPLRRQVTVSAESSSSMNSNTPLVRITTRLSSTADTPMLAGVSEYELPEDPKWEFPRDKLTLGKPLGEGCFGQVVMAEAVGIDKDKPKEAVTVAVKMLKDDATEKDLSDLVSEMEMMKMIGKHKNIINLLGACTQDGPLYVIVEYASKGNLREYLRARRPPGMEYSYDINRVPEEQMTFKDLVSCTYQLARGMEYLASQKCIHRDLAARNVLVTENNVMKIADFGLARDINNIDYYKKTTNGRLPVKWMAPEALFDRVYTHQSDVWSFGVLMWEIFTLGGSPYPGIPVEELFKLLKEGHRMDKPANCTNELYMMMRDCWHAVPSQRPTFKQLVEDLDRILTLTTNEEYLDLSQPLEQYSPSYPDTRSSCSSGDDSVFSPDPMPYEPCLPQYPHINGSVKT
Chain of Tyrosine-protein kinase Fer (Homo sapiens) (P16591 whole entry, looked up): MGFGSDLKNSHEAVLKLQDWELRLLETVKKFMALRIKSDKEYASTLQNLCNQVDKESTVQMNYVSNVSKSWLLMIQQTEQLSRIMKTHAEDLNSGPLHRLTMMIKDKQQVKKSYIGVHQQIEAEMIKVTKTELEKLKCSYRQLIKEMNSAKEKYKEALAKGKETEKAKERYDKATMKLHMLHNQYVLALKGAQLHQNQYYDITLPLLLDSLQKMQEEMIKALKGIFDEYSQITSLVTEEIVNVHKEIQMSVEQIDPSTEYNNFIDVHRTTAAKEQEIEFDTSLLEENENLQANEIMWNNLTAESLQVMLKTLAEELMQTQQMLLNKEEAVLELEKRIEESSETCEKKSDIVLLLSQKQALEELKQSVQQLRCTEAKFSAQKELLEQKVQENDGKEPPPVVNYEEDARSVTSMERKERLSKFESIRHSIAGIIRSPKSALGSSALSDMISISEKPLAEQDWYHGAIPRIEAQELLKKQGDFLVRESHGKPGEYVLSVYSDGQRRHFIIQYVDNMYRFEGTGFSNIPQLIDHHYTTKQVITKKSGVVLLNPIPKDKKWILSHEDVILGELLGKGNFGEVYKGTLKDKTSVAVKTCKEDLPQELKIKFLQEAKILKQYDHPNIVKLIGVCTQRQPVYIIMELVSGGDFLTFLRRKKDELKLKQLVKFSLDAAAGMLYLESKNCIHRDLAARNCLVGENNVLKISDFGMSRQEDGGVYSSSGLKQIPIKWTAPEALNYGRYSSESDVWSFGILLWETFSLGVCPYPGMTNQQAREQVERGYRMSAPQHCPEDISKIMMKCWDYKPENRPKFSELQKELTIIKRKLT
Chain of SRSF protein kinase 2 (Homo sapiens) (P78362 whole entry, looked up): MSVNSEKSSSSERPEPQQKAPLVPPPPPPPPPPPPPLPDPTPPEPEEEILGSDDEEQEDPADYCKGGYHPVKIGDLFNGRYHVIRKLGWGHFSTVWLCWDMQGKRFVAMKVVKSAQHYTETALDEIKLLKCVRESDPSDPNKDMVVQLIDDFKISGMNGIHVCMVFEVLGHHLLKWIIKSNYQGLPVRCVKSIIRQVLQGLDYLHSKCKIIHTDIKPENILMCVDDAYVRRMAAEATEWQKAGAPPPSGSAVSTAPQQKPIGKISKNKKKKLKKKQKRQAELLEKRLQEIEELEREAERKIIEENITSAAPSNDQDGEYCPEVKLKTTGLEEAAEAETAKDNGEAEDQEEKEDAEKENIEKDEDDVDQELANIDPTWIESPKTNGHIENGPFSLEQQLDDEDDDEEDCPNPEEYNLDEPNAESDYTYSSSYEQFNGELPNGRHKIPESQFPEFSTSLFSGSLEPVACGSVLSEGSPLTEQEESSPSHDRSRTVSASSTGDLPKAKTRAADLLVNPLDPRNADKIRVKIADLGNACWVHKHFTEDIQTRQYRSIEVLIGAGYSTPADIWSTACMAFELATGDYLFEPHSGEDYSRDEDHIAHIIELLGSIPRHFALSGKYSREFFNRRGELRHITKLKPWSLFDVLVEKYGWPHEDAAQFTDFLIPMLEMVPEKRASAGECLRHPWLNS

As for `C=CC(=O)Nc1ccc(C(=O)Nc2[nH]nc3c2CN(C(=O)N[C@H](CN(C)C)c2ccccc2)C3(C)C)cc1`, the % of engagement in test [1] is -6.9%.

For the molecule `CNC(=O)Nc1ccc(-c2nc(N3CC4CCC(C3)O4)c3cnn(C4CCC5(CC4)OCCO5)c3n2)cc1`, the % of control in test [2] amounted to 100%; in test [3], 92%.

In turn, `Cc1cc([C@@H](C)Nc2ccccc2C(=O)O)c2nc(N3CCOCC3)cc(=O)n2c1` [AZD-6482] came in with a % of control in [4] of 66%.

For the molecule `O=C(NOC[C@H](O)CO)c1ccc(F)c(F)c1Nc1ccc(I)cc1F`, the % of control in test [5] was 100%.

With `COc1cc(N(C)c2ccnc3ccc(C(F)(F)F)cc23)cc(OC)c1OC`, in [6], the % binding worked out at 94%.

In turn, `N#Cc1cccc(-c2c[nH]c3ncnc(N4CCOCC4)c23)c1` showed a % of control in test [7] of 26%.

As a reminder, the IC50 is the concentration at which inhibition is half-maximal. A low value points to greater potency. For `CCc1cccc(CC)c1NC(=O)c1nn(C)c2c1CCc1cnc(Nc3ccc(C(=O)NC4CCN(C)CC4)cc3OC(F)(F)F)nc1-2`, in test [8], the half-maximal inhibitory concentration (IC50) was over 10 µM.

For the molecule `C=CC(=O)Nc1cccc(C(=O)Nc2ccc(Nc3cc(-c4[nH]c(SC)nc4C)ccn3)cc2)c1`, the % of control in [9] (at 1 µM) was determined as 84%; in test [9] (at 5 µM), 55%.

In the case of `CN(C(=O)c1cnn2cccnc12)c1cc2c(cc1N1CCOCC1)C(=O)N(C[C@@H](F)C(C)(C)O)C2`, the dTM in test [10] was determined as 0.3 K.

For the molecule `COCC(=O)NC/C=C/c1ccc2ncnc(Nc3ccc(Oc4ccc(C)nc4)c(C)c3)c2c1` [CP-724714], the % of control in [11] is 73%.
